Data: article PMC10764104, “Discovery of Molecular Glue Degraders via Isogenic Morphological Profiling” (ACS Chemical Biology, 2023)

Molecular target: T1, GSPT2 G566N (Homo sapiens, UniProt Q8IYD1, G566N)
T1 construct: expressed in transfected cells; host or cells: RKO cells, lentiviral transduction, puromycin-selected
Test: Western blot (HA-tag) of G-loop mutant GSPT2 in RKO cells
Assay type: cell-based
Details: RKO cells stably overexpressing HA-GSPT2 G566N, 16 h; 10 μM FL2-14 or 10 nM CC-885
Procedure: Figure 3 FL2-14 is a selective GSPT2 molecular glue degrader. (A) Structure of FL2-14 comprising fluorosulfate scaffold FL2 (black) and tail group modification 14 (blue). (B) DMSO-normalized quantitative proteomics after 16 h of treatment with FL2-14 (10 μM) in RKO WT (n = 2). […] (C) Structural alignment of AlphaFold models of GSPT1 (AF-P15170-F1-model_v4 in gray) and GSPT2 (AF-Q8IYD1-F1-model_v4 in blue). (D) Validation of GSPT2 degradation by FL2-14. […] (E) Dose–response of FL2-14 in RKO and HEK293T cells. Cells were treated with the FL2-14 (0 to 10 μM) for 16 h. (F) Degradation of GSPT2^WT or GSPT2^G566N.
Prediction of the G‐loop degron sequence in GSPT2
We first compiled all CRBN degron sequences with known crystal structures (Table S 2). We subsequently discarded 6UML as its degron sequence included an alanine instead of the typical glycine observed in the seventh amino acid residue of other degron sequences, leaving six degron sequences. We then scanned the latest AlphaFold structure of GSPT215 for a potential stretch of 10 amino acids that would align best with each degron sequence. We yielded the same stretch of amino acid residues from position 560 to 569 ([…]) and RMSD values under 0.5 Å.
Table S 2: List of crystal structures used for the computational prediction of the G‐loop degron sequence […]
PDB code Resolution (Å) Chain Segment Sequence Reference
Analysis of G‐loop mutation […]

T1 sequence (Q8IYD1 whole entry G566N): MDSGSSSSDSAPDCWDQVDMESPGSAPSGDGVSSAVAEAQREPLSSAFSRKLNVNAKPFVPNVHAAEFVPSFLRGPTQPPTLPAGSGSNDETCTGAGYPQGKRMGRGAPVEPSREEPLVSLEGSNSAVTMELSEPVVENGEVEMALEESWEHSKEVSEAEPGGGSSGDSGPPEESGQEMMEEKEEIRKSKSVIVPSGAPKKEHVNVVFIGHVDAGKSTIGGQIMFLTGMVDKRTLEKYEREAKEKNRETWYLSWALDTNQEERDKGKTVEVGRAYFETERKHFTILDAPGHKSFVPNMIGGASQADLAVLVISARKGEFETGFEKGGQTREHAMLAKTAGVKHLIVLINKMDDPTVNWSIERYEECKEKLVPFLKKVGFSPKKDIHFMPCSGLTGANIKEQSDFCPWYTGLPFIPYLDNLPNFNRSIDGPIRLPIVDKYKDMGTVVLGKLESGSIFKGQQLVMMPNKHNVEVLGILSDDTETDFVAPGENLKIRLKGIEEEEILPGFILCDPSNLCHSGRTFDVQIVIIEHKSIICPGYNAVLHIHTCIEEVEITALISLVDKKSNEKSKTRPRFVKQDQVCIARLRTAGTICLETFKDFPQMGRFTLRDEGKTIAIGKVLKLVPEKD

CN(Cc1ncc(C2CC2)o1)S(=O)(=O)Oc1ccc(Nc2ccc3c(c2)C(=O)N(C2CCC(=O)NC2=O)C3=O)cc1 (stereo not shown) [FL2-14]
degradation of HA-tagged GSPT2 G566N (glycine of G-loop replaced by asparagine): rescued degradation of GSPT2
